According to article PMC3920478, “Small molecule-mediated refolding and activation of myosin motor function” (eLife, 2014):
“And” between values parts separate entries of the source, which are not always exact repeats. Equal values may be shown once.

How the values were obtained:
[1] = target: T1, Dd myosin-2 motor domain (Dictyostelium discoideum, UniProt P08799); experiment: Microscale thermophoresis direct binding; conditions: 100 nM, read-out: Binding affinity (MST), KD
T1 sequence (P08799 1-761 limits assumed): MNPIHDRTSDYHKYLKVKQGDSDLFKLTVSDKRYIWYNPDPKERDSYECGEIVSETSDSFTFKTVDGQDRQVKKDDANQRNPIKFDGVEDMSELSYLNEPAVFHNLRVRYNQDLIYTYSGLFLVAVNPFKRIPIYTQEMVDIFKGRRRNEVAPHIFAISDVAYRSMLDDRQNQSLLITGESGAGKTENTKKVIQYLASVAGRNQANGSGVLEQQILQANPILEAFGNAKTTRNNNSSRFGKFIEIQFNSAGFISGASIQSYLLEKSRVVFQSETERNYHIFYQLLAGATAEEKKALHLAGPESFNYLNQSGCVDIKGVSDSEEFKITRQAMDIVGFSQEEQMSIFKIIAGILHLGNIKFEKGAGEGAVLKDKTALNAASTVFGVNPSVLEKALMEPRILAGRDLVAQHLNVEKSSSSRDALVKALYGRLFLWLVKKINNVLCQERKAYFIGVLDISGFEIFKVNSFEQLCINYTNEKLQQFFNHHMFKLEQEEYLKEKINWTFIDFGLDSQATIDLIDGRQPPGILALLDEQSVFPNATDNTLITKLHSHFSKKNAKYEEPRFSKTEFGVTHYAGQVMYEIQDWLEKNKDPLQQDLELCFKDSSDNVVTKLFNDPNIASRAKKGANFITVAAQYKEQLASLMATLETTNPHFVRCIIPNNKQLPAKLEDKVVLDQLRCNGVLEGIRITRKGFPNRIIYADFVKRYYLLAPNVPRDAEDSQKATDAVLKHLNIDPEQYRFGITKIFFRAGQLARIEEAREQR
Text: Proteolytic fragments were further purified by actin-coprecipitation.

[2] = target: T2, Dd myosin-2 ΔSH3 (lacks residues 33–79) (Dictyostelium discoideum, UniProt P08799, DEL33-79); experiment: Direct binding to truncated construct; conditions: construct lacks SH3-like β-barrel
T2 construct: Dd myosin-2 ΔSH3, a recombinant motor domain construct that lacks this subdomain; made in house

[3] = target: T3, β-cardiac myosin (Sus scrofa, UniProt P79293); experiment: Steady-state basal and actin-activated Mg2+-ATPase (NADH-coupled assay); format: biochemical, Porcine
Target sequence in this assay (P79293 1-810 limits assumed): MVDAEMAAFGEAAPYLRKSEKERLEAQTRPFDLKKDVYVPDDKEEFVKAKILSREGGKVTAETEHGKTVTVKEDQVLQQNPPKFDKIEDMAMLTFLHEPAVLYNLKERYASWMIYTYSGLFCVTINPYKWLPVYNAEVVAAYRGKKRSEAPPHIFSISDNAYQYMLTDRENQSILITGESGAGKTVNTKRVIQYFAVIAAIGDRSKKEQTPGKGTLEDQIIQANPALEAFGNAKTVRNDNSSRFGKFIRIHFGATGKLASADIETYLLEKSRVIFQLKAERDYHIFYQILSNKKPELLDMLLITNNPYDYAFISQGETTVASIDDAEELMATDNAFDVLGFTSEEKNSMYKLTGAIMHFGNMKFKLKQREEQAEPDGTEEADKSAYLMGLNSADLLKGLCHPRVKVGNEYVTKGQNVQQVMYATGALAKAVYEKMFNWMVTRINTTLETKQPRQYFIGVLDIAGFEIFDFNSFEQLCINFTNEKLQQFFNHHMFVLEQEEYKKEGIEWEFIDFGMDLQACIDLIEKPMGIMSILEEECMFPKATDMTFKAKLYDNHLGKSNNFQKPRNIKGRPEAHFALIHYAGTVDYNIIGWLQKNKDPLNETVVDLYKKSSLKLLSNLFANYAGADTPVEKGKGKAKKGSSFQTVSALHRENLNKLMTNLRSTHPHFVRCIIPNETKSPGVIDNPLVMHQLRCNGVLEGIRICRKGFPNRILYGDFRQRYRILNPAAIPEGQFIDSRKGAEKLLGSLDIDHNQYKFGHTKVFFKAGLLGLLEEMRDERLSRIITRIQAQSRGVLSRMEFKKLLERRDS

[4] = target: T3, β-cardiac myosin; experiment: Frictional loading experiments with α-actinin (force production); format: biochemical, Porcine; parameters: β-Cardiac myosin-2 (S1, full-length); from tissue; host or cells: porcine cardiac muscle
Text: In addition, the fraction of moving filaments increased from <75% to >95%. […] In initial experiments, we determined the minimal concentration of α-actinin molecules that generate sufficient load to stall the movement of actin filaments for a given surface density of myosin heads. […] Next, we generated in vitro motility flow cells with actin filaments held at stall force. […] The time-dependence of the recovery of motile activity is best fit by a hyperbola. A plateau value of 0.4 μm s^−1 is reached after more than 2 hr (Figure 1G).
Target sequence in this assay (P79293 whole entry): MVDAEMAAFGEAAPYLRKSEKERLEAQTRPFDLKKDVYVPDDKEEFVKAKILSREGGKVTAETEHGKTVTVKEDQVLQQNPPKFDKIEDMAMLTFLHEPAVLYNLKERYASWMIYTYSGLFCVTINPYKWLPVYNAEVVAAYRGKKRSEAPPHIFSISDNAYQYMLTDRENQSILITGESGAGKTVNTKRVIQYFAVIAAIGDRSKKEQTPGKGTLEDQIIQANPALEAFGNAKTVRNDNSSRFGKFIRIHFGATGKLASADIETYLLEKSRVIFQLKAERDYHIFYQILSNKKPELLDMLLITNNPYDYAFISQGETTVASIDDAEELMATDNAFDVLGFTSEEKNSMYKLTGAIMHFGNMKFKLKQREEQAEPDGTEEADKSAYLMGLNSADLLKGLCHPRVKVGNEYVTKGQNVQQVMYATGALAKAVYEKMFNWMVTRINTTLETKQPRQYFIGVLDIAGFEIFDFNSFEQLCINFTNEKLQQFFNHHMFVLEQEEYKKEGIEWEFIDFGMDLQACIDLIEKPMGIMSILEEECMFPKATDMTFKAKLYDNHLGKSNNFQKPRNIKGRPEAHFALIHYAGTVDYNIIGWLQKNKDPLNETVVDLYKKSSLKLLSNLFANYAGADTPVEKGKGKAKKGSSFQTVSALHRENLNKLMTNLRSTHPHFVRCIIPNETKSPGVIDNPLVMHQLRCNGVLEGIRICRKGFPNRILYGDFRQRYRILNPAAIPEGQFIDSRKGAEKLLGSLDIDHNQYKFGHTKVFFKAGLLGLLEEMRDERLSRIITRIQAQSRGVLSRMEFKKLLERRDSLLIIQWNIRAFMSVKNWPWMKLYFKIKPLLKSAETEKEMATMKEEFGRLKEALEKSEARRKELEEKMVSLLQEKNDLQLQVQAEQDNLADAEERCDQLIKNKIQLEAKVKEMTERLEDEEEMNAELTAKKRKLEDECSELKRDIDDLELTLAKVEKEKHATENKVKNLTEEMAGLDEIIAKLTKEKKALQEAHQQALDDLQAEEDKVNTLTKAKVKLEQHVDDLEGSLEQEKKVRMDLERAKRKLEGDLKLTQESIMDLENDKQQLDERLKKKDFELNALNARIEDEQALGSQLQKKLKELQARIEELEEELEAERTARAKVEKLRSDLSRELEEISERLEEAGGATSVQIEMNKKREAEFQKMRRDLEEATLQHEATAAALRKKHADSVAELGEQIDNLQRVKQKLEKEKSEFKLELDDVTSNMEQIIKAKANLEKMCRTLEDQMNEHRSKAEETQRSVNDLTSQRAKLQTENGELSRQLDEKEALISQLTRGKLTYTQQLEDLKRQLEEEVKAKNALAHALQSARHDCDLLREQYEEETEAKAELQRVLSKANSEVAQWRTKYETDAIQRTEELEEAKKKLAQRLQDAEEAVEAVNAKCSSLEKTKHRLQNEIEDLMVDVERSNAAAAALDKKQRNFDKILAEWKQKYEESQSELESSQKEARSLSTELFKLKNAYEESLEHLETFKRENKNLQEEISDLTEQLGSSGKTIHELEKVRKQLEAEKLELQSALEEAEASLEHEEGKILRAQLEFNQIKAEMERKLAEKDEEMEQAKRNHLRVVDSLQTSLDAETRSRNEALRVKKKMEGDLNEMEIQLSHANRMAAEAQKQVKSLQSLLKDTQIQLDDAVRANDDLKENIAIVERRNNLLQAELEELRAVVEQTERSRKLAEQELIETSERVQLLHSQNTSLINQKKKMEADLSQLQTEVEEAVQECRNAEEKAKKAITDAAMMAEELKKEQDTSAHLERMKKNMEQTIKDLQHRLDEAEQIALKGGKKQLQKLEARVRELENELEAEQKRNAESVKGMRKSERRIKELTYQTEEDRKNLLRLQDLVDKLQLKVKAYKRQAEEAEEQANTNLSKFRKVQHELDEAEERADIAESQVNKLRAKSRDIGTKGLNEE

[5] = 25 μM EMD 57033, 8 µg/ml α-actinin

T2 sequence (P08799 other isoform, or with tags, fused parts or gaps DEL33-79): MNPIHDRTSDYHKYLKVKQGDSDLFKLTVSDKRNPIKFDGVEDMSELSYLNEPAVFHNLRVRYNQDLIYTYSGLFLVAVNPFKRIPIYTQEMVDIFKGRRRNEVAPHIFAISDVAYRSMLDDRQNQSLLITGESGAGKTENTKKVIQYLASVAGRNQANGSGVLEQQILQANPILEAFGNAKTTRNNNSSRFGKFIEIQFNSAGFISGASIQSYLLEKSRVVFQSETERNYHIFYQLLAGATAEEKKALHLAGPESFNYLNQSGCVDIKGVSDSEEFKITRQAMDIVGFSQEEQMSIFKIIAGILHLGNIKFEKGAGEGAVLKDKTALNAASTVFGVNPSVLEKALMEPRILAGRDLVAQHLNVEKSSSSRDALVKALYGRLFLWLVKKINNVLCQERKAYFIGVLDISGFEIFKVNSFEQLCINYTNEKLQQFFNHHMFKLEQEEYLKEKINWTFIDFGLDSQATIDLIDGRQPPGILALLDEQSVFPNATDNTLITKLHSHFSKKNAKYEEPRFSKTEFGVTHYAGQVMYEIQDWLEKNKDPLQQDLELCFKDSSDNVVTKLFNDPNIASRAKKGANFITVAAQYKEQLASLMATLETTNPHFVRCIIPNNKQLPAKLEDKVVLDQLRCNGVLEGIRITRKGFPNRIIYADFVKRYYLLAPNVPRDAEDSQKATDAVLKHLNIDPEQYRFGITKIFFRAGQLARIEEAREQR

## COc1ccc(C(=O)N2CCCc3cc(C4=NNC(=O)SC4C)ccc32)cc1OC (stereo not shown) [EMD 57033]
[1]
  Kd: 23 µM
[2]
  Direct binding: neither binding
[3]; EMD 57033 vs control
  Ea ∼Change (−fold), reduction: 1.5 fold
[3]; in presence of EMD 57033, 25–45°C
  Ea (Arrhenius activation energy of ATP turnover): 7.41 kcal/mol and 7.41 ± 0.72 kcal/mol
[4]; [5]
  Plateau value of recovered filament velocity at stall load: 0.4 μm s^−1
  Time to reach plateau of recovered motility: more than 2 hr
[4]; in presence of EMD 57033
  α-actinin concentration required to stall filament movement: ≥ 12 µg/mL
